compound: C(C(=O)C(=O)O)Br [Bromopyruvate] + N=C(N)NC(=N)NCCc1ccccc1 [Phenformin] (partner 250 µM); test: relative viability (nuclei count vs DMSO), 5 days (fraction); higher = more cells survive; settings: first compound 1 µM
How it was run: (§1)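 Nuclei were stained with Hoechst during a one-step fixation (final 0.05% Triton X-100, 1% formaldehyde, 1 ug/ml Hoechst) carried out 5 days after dosing, then counted on 4× images. The cells, lung cancer lines in 1536-well plates, had been dosed by pin tool the day after seeding with one drug alone or a fixed anchor-drug dose plus five library-drug doses (not always all listed) in √10 steps. Relative viability is the nuclei count in treated wells divided by that in vehicle wells, and each value is the median of duplicate plates.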

Cell Line	relative viability
NCI-H2087	0.493
HCC-366	0.592
NCI-H1666	0.598
NCI-H647	0.5
LK-2	0.411
NCI-H2126	0.556
NCI-H2342	0.574
SK-MES-1	0.653
H3255	0.365
COR-L23	0.433
COR-L 105	0.488
LOU-NH91	0.759
ChaGo-K-1	0.581
NCI-H2170	0.414
NCI-H3122	0.401
HOP-62	0.704
HCC-44	0.346
A549	0.17
SW 900	0.645
LU99A	0.751
BEN	0.279
HARA	0.496
HCC-78	0.644
NCI-H1563	0.621

same assay, conditions: first compound 3.162 µM

Cell Line	relative viability
NCI-H522	0.654
NCI-H1623	0.654
NCI-H838	0.604
NCI-H1650	0.429
NCI-H2009	0.493
NCI-H1993	0.488
PC-14	0.737
LCLC-103H	0.338
NCI-H596	0.724
NCI-H2228	0.418
EMC-BAC-2	0.519
NCI-H2087	0.445
HCC-366	0.649
NCI-H1666	0.582
NCI-H647	0.637
LK-2	0.673
NCI-H2126	0.534
NCI-H2342	0.645

Cell Line	relative viability
SK-MES-1	0.651
H3255	0.421
COR-L23	0.435
COR-L 105	0.438
LOU-NH91	0.77
ChaGo-K-1	0.531
NCI-H2170	0.487
NCI-H3122	0.398
HOP-62	0.643
HCC-44	0.191
A549	0.16
SW 900	0.55
LU99A	0.753
BEN	0.265
HARA	0.431
HCC-78	0.719
NCI-H1563	0.748

same assay, conditions: first compound 10 µM

Cell Line	relative viability
NCI-H522	0.641
NCI-H1623	0.635
NCI-H838	0.656
NCI-H1650	0.475
NCI-H2009	0.507
NCI-H1993	0.547
PC-14	0.776
LCLC-103H	0.371
NCI-H596	0.501
NCI-H2228	0.178
EMC-BAC-2	0.637
NCI-H2087	0.578
HCC-366	0.635
NCI-H1666	0.606
NCI-H647	0.578
LK-2	0.432
NCI-H2126	0.518
NCI-H2342	0.613

Cell Line	relative viability
SK-MES-1	0.671
H3255	0.432
COR-L23	0.459
COR-L 105	0.484
LOU-NH91	0.74
ChaGo-K-1	0.511
NCI-H2170	0.435
NCI-H3122	0.394
HOP-62	0.645
HCC-44	0.185
A549	0.0997
SW 900	0.755
LU99A	0.89
BEN	0.266
HARA	0.503
HCC-78	0.759
NCI-H1563	0.643

same assay, conditions: first compound 31.62 µM

Cell Line	relative viability
NCI-H522	0.679
NCI-H1623	0.588
NCI-H838	0.603
NCI-H1650	0.449
NCI-H2009	0.475
NCI-H1993	0.495
PC-14	0.546
LCLC-103H	0.362
NCI-H596	0.695
NCI-H2228	0.285
EMC-BAC-2	0.548
NCI-H2087	0.414
HCC-366	0.597
NCI-H1666	0.605
NCI-H647	0.494
LK-2	0.57
NCI-H2126	0.54
NCI-H2342	0.479

Cell Line	relative viability
SK-MES-1	0.658
H3255	0.399
COR-L23	0.411
COR-L 105	0.405
LOU-NH91	0.74
ChaGo-K-1	0.473
NCI-H2170	0.41
NCI-H3122	0.374
HOP-62	0.737
HCC-44	0.184
A549	0.234
SW 900	0.706
LU99A	0.921
BEN	0.262
HARA	0.483
HCC-78	0.516
NCI-H1563	0.673

same assay, conditions: first compound 100 µM

Cell Line	relative viability
NCI-H522	0.574
NCI-H1623	0.625
NCI-H838	0.555
NCI-H1650	0.291
NCI-H2009	0.344
NCI-H1993	0.501
PC-14	0.516
LCLC-103H	0.365
NCI-H596	0.822
NCI-H2228	0.334
EMC-BAC-2	0.571
NCI-H2087	0.392
HCC-366	0.648
NCI-H1666	0.496
NCI-H647	0.494
LK-2	0.496
NCI-H2126	0.513
NCI-H2342	0.488

Cell Line	relative viability
SK-MES-1	0.668
H3255	0.37
COR-L23	0.227
COR-L 105	0.391
LOU-NH91	0.747
ChaGo-K-1	0.411
NCI-H2170	0.379
NCI-H3122	0.376
HOP-62	0.696
HCC-44	0.16
A549	0.22
SW 900	0.627
LU99A	0.794
BEN	0.279
HARA	0.476
HCC-78	0.657
NCI-H1563	0.657

compound: C(C(=O)C(=O)O)Br [Bromopyruvate] + CC(=O)c1c(C)c2cnc(Nc3ccc(N4CCNCC4)cn3)nc2n(C2CCCC2)c1=O [Palbociclib] (partner 0.5 µM); test: as above; settings: first compound 1 µM
How it was run: as §1

Cell Line	relative viability
NCI-H522	1.02
NCI-H838	0.19
NCI-H1650	0.328
NCI-H2009	0.208
NCI-H1993	0.536
PC-14	0.577
LCLC-103H	0.505
NCI-H2228	0.791
EMC-BAC-2	0.434
NCI-H2087	0.222
HCC-366	0.405
NCI-H1666	0.618
NCI-H647	0.4
LK-2	0.688
NCI-H2126	0.34
NCI-H2342	0.487

Cell Line	relative viability
SK-MES-1	0.352
H3255	0.314
COR-L23	0.239
COR-L 105	0.404
LOU-NH91	0.53
ChaGo-K-1	0.93
NCI-H2170	0.365
NCI-H3122	0.167
HOP-62	0.432
HCC-44	0.985
SW 900	0.524
LU99A	0.404
BEN	0.457
HARA	0.254
NCI-H1648	0.211
HCC-78	0.446

same assay, conditions: first compound 3.162 µM

Cell Line	relative viability
NCI-H522	1.03
NCI-H838	0.251
NCI-H1650	0.328
NCI-H2009	0.214
NCI-H1993	0.661
PC-14	0.538
LCLC-103H	0.486
NCI-H2228	0.9
EMC-BAC-2	0.546
NCI-H2087	0.232
HCC-366	0.361
NCI-H1666	0.632
NCI-H647	0.312
LK-2	0.858
NCI-H2126	0.335
NCI-H2342	0.55

Cell Line	relative viability
SK-MES-1	0.344
H3255	0.31
COR-L23	0.283
COR-L 105	0.396
LOU-NH91	0.545
ChaGo-K-1	0.947
NCI-H2170	0.421
NCI-H3122	0.202
HOP-62	0.443
HCC-44	0.912
SW 900	0.486
LU99A	0.414
BEN	0.449
HARA	0.283
NCI-H1648	0.242
HCC-78	0.471

same assay, conditions: first compound 10 µM

Cell Line	relative viability
NCI-H522	1
NCI-H838	0.229
NCI-H1650	0.309
NCI-H2009	0.227
NCI-H1993	0.813
PC-14	0.686
LCLC-103H	0.455
NCI-H2228	0.665
EMC-BAC-2	0.554
NCI-H2087	0.19
HCC-366	0.43
NCI-H1666	0.64
NCI-H647	0.466
LK-2	0.797
NCI-H2126	0.306
NCI-H2342	0.476

Cell Line	relative viability
SK-MES-1	0.29
H3255	0.297
COR-L23	0.232
COR-L 105	0.415
LOU-NH91	0.494
ChaGo-K-1	0.979
NCI-H2170	0.389
NCI-H3122	0.197
HOP-62	0.416
HCC-44	0.944
SW 900	0.536
LU99A	0.478
BEN	0.505
HARA	0.296
NCI-H1648	0.283
HCC-78	0.455

same assay, conditions: first compound 31.62 µM

Cell Line	relative viability
NCI-H522	1.02
NCI-H838	0.237
NCI-H1650	0.368
NCI-H2009	0.179
NCI-H1993	0.629
PC-14	0.573
LCLC-103H	0.415
NCI-H2228	0.85
EMC-BAC-2	0.506
NCI-H2087	0.221
HCC-366	0.395
NCI-H1666	0.622
NCI-H647	0.386
LK-2	0.637
NCI-H2126	0.375
NCI-H2342	0.485

Cell Line	relative viability
SK-MES-1	0.32
H3255	0.308
COR-L23	0.255
COR-L 105	0.374
LOU-NH91	0.544
ChaGo-K-1	0.87
NCI-H2170	0.396
NCI-H3122	0.178
HOP-62	0.343
HCC-44	1.01
SW 900	0.589
LU99A	0.493
BEN	0.497
HARA	0.259
NCI-H1648	0.298
HCC-78	0.514

same assay, conditions: first compound 100 µM

Cell Line	relative viability
NCI-H522	1.1
NCI-H838	0.242
NCI-H1650	0.345
NCI-H2009	0.0903
NCI-H1993	0.775
PC-14	0.411
LCLC-103H	0.528
NCI-H2228	0.775
EMC-BAC-2	0.533
NCI-H2087	0.227
HCC-366	0.38
NCI-H1666	0.599
NCI-H647	0.506
LK-2	0.678
NCI-H2126	0.343
NCI-H2342	0.458

Cell Line	relative viability
SK-MES-1	0.319
H3255	0.309
COR-L23	0.178
COR-L 105	0.429
LOU-NH91	0.587
ChaGo-K-1	0.876
NCI-H2170	0.411
NCI-H3122	0.13
HOP-62	0.341
HCC-44	0.991
SW 900	0.5
LU99A	0.2
BEN	0.486
HARA	0.261
NCI-H1648	0.328
HCC-78	0.407
